Measured values: US20040127575A1, “Method for counteracting a pathologic change in the beta-adrenergic pathway” (priority 2002, published 2004)
“And” between values parts separate entries of the source, which are not always exact repeats. Equal values may be shown once. “Also recorded” adds a separate entry of the source.

How the values were obtained:
[1] = tested on: β2-adrenergic receptors on cell surface; test: radioligand binding with [3H]CGP-12177 on intact hBSMC; type: cell-based, human; settings: TGFβ1 exposure
Method: The number of β2-adrenergic receptors on cell surface was determined by radioligand binding using hydrophilic, membrane-impermeable β-adrenergic antagonist [^3H]CGP-12177. Intact hBSMCs in 10 cm dish were preincubated with 5 nM [^3H]-CGP 12177 in the presence or absence of 20 uM propranolol (to define the amount of nonspecific binding) in SmBM for 1 hour at 37° C. with very gentle shaking. Cells were washed 3 times with ice-cold 1×PBS containing 0.1% Tween-20 (binding buffer) and 3 more times with ice-cold 1×PBS. 400 μl of RIPA buffer containing protease inhibitors was added to the plates and cells were scraped off the plates. Cell lysates were collected and protein concentrations were determined by BCA method (PIERCE). The radioligand bound to the whole cell was quantified by liquid scintillation counter and normalized to the protein concentration.

[2] = tested on: rat neonatal cardiomyocytes; test: cyclic AMP accumulation in rat neonatal cardiomyocytes (EIA); settings: for attenuation of isoproterenol-stimulated cAMP accumulation: 1 μM isoproterenol, 200 nM antagonist; for β2AR response/AC activity (procaterol, forskolin): FIG. 11
Method: Ventricular cardiomyocytes were isolated from neonatal rat hearts as described before and seeded to fibronectin coated plates in DMEM21 and Coon's F12 with 10% FBS. […] Myocytes were used within 24 to 72 hr after isolation.
For pretreatment, cells were washed once in serum-free media (SFM) supplemented with 0.1% bovine serum albumin (BSA) and incubated with TGF-β1 in the presence or absence of inhibitors in the same media. Control cells were treated with the appropriate vehicles.
HBSMC or rat neonatal cardiomyocytes were subcultured in 96-well or 24-well plates for 24 hr to 48 hr, then treated with TGFβ1 (1-2ng/ml), Activin A (10-50 ng/ml) and other drugs in 1% serum-containing or serum-free media. After 24 hr incubation, phosphodiesterase inhibitor, IBMX (200 uM) was added to fresh media for 10-15 min before exposure to either 10 uM procaterol, 1 uM isoproterenol, or 10-50 uM forskolin for 10 min to stimulate cAMP production. The stimulation medium was removed and cells were lysed in 0.1M HCl. cAMP levels were measured using Direct cAMP EIA kit from Assay Designs, Inc. following manufacture's instruction.
Subsequent to treatment with TGF-β1 (1-2 ng/ml), cardiomyocytes (˜1×10^5 cells/well in 24-well plates) were incubated with phosphodiesterase inhibitor, IBMX (200 μM) for 30 min in SFM. Cells were then exposed to either procaterol (10 μM), forskolin (10-50 μM), or isoproterenol (Iso, 1 μM) for 10 min to allow for accumulation of cAMP. […] The incubations were terminated by removal of the medium. Cells in each well were lysed in 150 μl of 0.1 M HCl at room temperature (RT) for 30 min. Intracellular cAMP contents were measured using the Direct cAMP EIA kit following manufacture's instruction, and the cAMP levels were calculated in pmol/ml.

[3] = tested on: human bronchial smooth muscle cells (hBSMC); test: cyclic AMP accumulation in hBSMC (EIA); type: cell-based
Method: Human bronchial smooth muscle cells (hBSMC) were purchased from Clonetics (BioWhittaker, Inc., Walkersville, Md.), and maintained in SmGM-2 containing 5% fetal bovine serum (Clonetics) at 37° C./5% CO2. All experiments were performed on cells at passages from 6 to 8. For pretreatment, cells were incubated in 1% serum-containing media or serum-free media in the presence or absence of TGFβ1, Activin A and other drugs. Control cells were treated with the appropriate vehicles.

Smad2, Smad3 = test: Western blot of phospho-Smad2 and Smad3 in hBSMC; type: cell-based, human
Method: (§1) After incubation with TGFβ1 and other drugs, cells were washed once with 1×PBS and lysed in 0.2 ml/plate cold RIPA buffer (phosphate buffered saline, pH 7.4, 1% NP-40, 0.5% sodium deoxycholate, 0.1% sodium dodecylsulfate, 1 mM sodium orthovanadate, 1 mM NaF, 1 mM β-glycerolphosphate, 1 uM okadaic acid, 10 ng/ml aprotinin, 10 ng/ml leupeptin, 1 mM phenymethylsulfonyl fluoride). Samples were clarified by centrifugation (4° C., 10 min, 15,000×g), and protein concentration was determined by BCA method (PIRCE). Lysates with equal amounts of total cell protein (15-20 ug) were separated on 10% SDS-NuPAGE (Invitrogen) and then transferred to nitrocellulose membrane. The membrane was blocked in 3% nonfat dry milk/TBST (10 mM Tris-HCl pH 7.5, 150 mM NaCl, 0.1% Tween 20) for 1 hr, and probed with anti-Smad2/3 mouse monoclonal antibody [Transduction Laboratories (S66220); 1:500 dilution in 3% milk/TBST], or anti-phospho-Smad2 (Ser465/467) rabbit antiserum [Cell Signaling (3101S); 1:500 dilution in 3% BSA/TBST] at 4° C. overnight. Donkey anti-mouse HRP [Santa Cruz (SC-2314); 1:2000 dilution] or donkey anti-rabbit HRP [Santa Cruz (SC-23130; 1:2000 dilution] were used as secondary antibody. Immunoreactivity was detected with chemiluminescence reagent (Santa Cruz) and visualized by exposing to x-ray film (Kodak).

β2AR mRNA = test: real-time quantitative PCR of β2AR mRNA in hBSMC; type: cell-based, human; settings: TGFβ1 exposure
From the text: Expression levels were normalized to 18S rRNA.

[4] = tested on: β2-AR receptor binding sites; test: radioligand binding in cardiomyocytes; type: cell-based, rat
Method: The radioligand binding assay was performed as described in Example 1. To define the nonspecific binding to β2-AR, 50 nM CGP-20712A were used.
Membranes were then prepared and binding of 100 pm [^125]-CYP was measured for 2 hours at 23° C. using 8 μg membrane protein, and expressed as fmol/mg protein. Binding in the presence of 100 nM CGP-20712A was defined as binding to β2-AR, while binding in the presence of 100 μM propranolol was defined as non-specific binding. Subtraction of β2-AR binding from total binding was defined as β1-AR binding. The results are shown in FIG. 25 (p<0.05 vs. vehicle).

[5] = tested on: rat neonatal cardiomyocytes; test: real-time RT-PCR of mRNA levels in cardiomyocytes; settings: for β2-AR mRNA levels in cardiomyocytes: 24 hr pretreatment for TGF-β1
From the text: Total RNA was extracted from cells using Qiagen's RNAeasy kit (Valencia, Calif.), and analyzed by quantitative real time RT-PCR [Gibson UEM, Heid C A and Williams P M. Genome Res. 6, 995-1001, 1996] using an ABI Prism™ 7700 Sequence Detection System (PE Applied Biosystems, Foster City, Calif.). This system is based on the ability of the 5′nuclease activity of Taq polymerase to cleave a nonextendable dual-labeled fluorogenic hybridization probe during the extension phase of PCR. The probe is labeled with reporter fluorescent dye at the 5′ end and a quencher fluorescent dye (6-carboxy-tetramethyl-rhodamine) at the 3′ end. When the probe is intact, reporter emission is quenched by the physical proximity of the reporter and quencher fluorescent dyes. However, during the extension phase of PCR, the nucleolytic activity of the DNA polymerase cleaves the hybridization probe and releases the reporter dye from the probe with a concomitant increase in reporter fluorescence.
Sequence specific primers and probes were designed using Primer Express software (PE Applied Biosystems, Foster City, Calif.). […] Primers were used at a concentration of 200 nM and probes at 100 nM in each reaction. Multiscribe reverse transcriptase and AmpliTaq Gold polymerase (PE Applied Biosystems, Foster City Calif.) were used in all RT-PCR reactions and PCR reactions. RT-PCR parameters were as follows: 48° C. for 30 min (reverse transcription), 95° C. for 10 min (AmpliTaq Gold activation) and 40 cycles of 95° C. for 15 sec, 60° C. for 1 min. Relative quantitation of β1-AR, β2-AR, and 18S mRNA were calculated using the comparative threshold cycle number for each sample fitted to a five point standard curve (ABI Prism 7700 User Bulletin #2, PE Applied Biosystems, Foster City Calif.). Expression levels were normalized to 18S rRNA.

Smad2/3 and Smad4 = test: immunofluorescence staining of Smad nuclear translocation in cardiomyocytes
Method: The nuclear translocation of Smad proteins in response to TGF-β1 was determined by immunofluorescence staining with monoclonal anti-Smad2/3 antibody (BD Transduction Labarotories) and anti-Smad4 antibody (sc-7966) (Santa Cruz Biotechnology). Briefly, myocytes cultured on Lab-Tek chamber slides (Nalge Nunc International, Naperville, Ill.) coated with fibronectin and gelatin were fixed with 4% paraformaldehyde in PBS for 5 min, then penetrated with 0.1% saponin/1% normal goat serum (NGS) in PBS for 15 min. After blocking nonspecific binding with 5% NGS/0.05% saponin in PBS for 15 min, the slides were incubated with primary antibody in 1% NGS in PBS at 4° C. overnight. After another washing and blocking, slides were incubated with a biotinylated anti-mouse antibody for 30 min, followed by fluorescein isothiocyanate (FITC)-conjugated-avidin (Vector, Burlingame, Calif.) for 30 min. Slides were dried and mounted in Vectashield (Vector). Samples were analyzed by fluorescence microscopy.

Smad2 = test: Western blot of Smad2 phosphorylation in cardiomyocytes
Method: as §1
The binding of primary antibodies was followed by incubation for 1 hour at RT with the secondary horseradish peroxidase (HRP) conjugated goat anti-mouse or goat anti-rabbit antibody (Santa Cruz Biotechnology). Immunoreactivity was detected with chemiluminescence reagents and visualized by exposing to x-ray film (Kodak).

TGF-β mediated fibrosis = TGF-β mediated fibrosis in in vitro and in vivo models; settings: several in vitro and in vivo models
TGFβ-RII receptor = TGFβ-RII receptor (Homo sapiens, UniProt P37173); test: specificity against TGFβ-RII receptor; settings: relative to TGFβ-RI kinase
TGFβ-RII receptor, sequence (P37173 23-567): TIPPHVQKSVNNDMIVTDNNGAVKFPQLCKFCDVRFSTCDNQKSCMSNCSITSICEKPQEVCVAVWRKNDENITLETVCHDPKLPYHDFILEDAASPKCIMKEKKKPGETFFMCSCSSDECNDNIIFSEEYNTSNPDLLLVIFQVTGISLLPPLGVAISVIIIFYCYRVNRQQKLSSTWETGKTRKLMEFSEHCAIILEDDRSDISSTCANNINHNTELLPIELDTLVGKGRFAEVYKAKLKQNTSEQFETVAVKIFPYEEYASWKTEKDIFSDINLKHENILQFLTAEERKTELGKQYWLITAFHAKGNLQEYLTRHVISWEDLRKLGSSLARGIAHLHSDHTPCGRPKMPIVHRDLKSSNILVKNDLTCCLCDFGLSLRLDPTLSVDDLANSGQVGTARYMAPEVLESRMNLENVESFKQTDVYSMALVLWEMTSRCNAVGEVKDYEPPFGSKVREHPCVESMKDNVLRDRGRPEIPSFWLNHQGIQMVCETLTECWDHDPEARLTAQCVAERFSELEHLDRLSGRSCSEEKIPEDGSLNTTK

[6] = tested on: panel of related protein kinases; test: panel of related protein kinases; settings: relative to TGFβ-RI kinase

In the case of “TGF-β1: Human recombinant transforming growth factor-β1 from R&D System”, the “βAR binding sites on hBSMC” value [1] is reported as “reduces”, the “reduction in procaterol-stimulated cAMP accumulation” value ([2]; TGF-β1 1 ng/ml pre-treatment 24 hr, 10 μM procaterol, maximal effect) is reported as 59±5.2% and ~60% and the “cAMP accumulation stimulated by forskolin” value ([2]; TGF-β1 exposure, 25 μM forskolin) is reported as “decreased”. The “decrease of cAMP accumulation when β2-ARs selectively stimulated by isoproterenol in the presence of CGP-20712A” value ([2]; TGF-β1 pretreatment 24 hr) was about 65%, the “reduction in β1-AR mediated cAMP accumulation (isoproterenol in the presence of ICI 118, 551)” value ([2]; TGF-β1 pretreatment 24 hr) was 16.5±3.1% and the “time course of loss of β2AR response (procaterol-induced cAMP) in hBSMC” value ([3]; more profound at 24 hr or later) was “after 12 hr”. For the same molecule, the “time course of effect on AC activity (forskolin-induced cAMP) in hBSMC” value ([3]; to a lesser extent) was “only observed 24 hr later”, the “Smad2 phosphorylation in hBSMC” value (Smad2, Smad3) was “induces” and the “Smad3 expression in hBSMC” value (Smad2, Smad3) was “down-regulated”. For the same molecule, the “β2AR mRNA in hBSMC” value (β2AR mRNA) was “significantly reduces”, the “β2-AR receptor binding sites in cardiomyocytes” value [4] was “trend to decrease” and the “Smad7 mRNA in cardiomyocytes” value [5] was “up-regulated”. For the same molecule, the “β1-AR mRNA levels in cardiomyocytes” value [5] was “did not significantly alter”, the “β2-AR mRNA levels in cardiomyocytes” value [5] was “decreased β2-AR mRNA levels dramatically” and the “earliest time of suppression of β2-AR mRNA” value ([5]; after treatment) was 1 h. The “expression of βARK1, Gsα, Giα-1, Giα-3” value ([5]; message or protein levels) was “did not alter”, the “mRNA levels of AC5 and AC6” value ([5]; time-dependent) was “significant reduction” and the “Smad3 mRNA in cardiomyocytes” value ([5]; within 24 hr) was “down-regulated”. For the same molecule, the “Smad2/3 and Smad4 fluorescence staining in the nucleus” value (Smad2/3 and Smad4; stimulation for 1 hr) was “dramatically increased” and the “time of peak serine phosphorylation of Smad2” value (Smad2; maintained for 24 hr) was 1 h.

For `Cn1cc(C(F)(F)F)nc1-c1ccc(OCC(O)CNCCOc2ccc(O)c(C(N)=O)c2)cc1` (centres unmarked) [CGP-20712A, reference compound], the “attenuation of isoproterenol-stimulated cAMP accumulation” value [2] was about 75%.

For `N#CC(=C(/N)Sc1ccccc1N)/C(C#N)=C(\N)Sc1ccccc1N` [U0126, reference compound], the “β2-AR mediated (procaterol stimulated) cAMP accumulation after 24 hr TGF-β1 exposure, compared to vehicle” value ([2]; Compound No. 79 200 nM, p38 inhibitor 0.5 μM, U-0126 5 μM, JNK inhibitor I 5 μM, TGF-β1 1 ng/ml) was “No significant effects; also recorded: did not affect”.

In the case of `Cc1ccc(OCC(O)C(C)NC(C)C)c2c1CCC2` (centres unmarked) [ICI 118, 551, reference compound], the “attenuation of isoproterenol-stimulated cAMP accumulation” value [2] is reported as about 25%.

`CCC(NC(C)C)C(O)c1ccc(O)c2[nH]c(=O)ccc12` (centres unmarked) [procaterol, reference compound] was tested, and the “cAMP accumulation by agonist” value ([2]; 10 μM procaterol) was “substantially increased”.

For `Fc1ccc(Cl)cc1-c1nc(Nc2ccncc2)c2nccnc2n1` [Compound No. 79], the “effect on TGF-β mediated fibrosis” value (TGF-β mediated fibrosis) was “able to block”, the “effect on TGFβ1-induced loss of β2AR response and AC activity” value ([2]; Example 1, FIG. 9) was “prevents” and the “basal cAMP levels in cardiomyocytes” value ([2]; higher concentration) was “increased”. The “isoproterenol or forskolin induced cAMP accumulation in TGF-β1 treated cardiomyocytes” value ([2]; pre-incubation, Compound No. 79 200 nM) was “preserved”, the “effect on TGFβ1-induced loss of adrenergic responsiveness in hBSMC” value ([3]; FIG. 4) was “prevents” and the “effect on TGFβ1-induced Smad2 phosphorylation and Smad3 down-regulation in hBSMC” value (Smad2, Smad3; FIG. 13) was “blocks”. The “specificity against TGFβ-RII receptor” value (TGFβ-RII receptor) was over 100 fold, the “effect on TGF-β1 induced down-regulation of β2-AR mRNA” value ([5]; 5 ng/ml TGF-β1, 24 hr, dose-dependent) was “reversed” and the “effect on activin-induced down-regulation of β2AR mRNA” value ([5]; FIG. 10) was “prevented”. For the same molecule, the “effect on decreased AC5 and AC6 mRNA levels in TGF-β1 treated cardiomyocytes” value ([5]; dose-dependent) was “inhibited”, the “effect on TGF-β1 induced down-regulation of Smad3 mRNA” value ([5]; dose-dependent, within 24 hr) was “blocked” and the “mRNA levels of β2-AR in TGFβ1 treated cells” value ([5]; high doses (400-1000 nM)) was “higher than that in control cells”. The “effect on TGF-β1 induced Smad2/3 and Smad4 translocation into the nucleus” value (Smad2/3 and Smad4; 400 nM) was “completely abolished”, the “effect on TGF-β1 induced Smad2 phosphorylation/activation” value (Smad2; pre-incubation, Compound No. 79 at 400 nM, 1 hr and 24 hr) was “significantly blocked” and the “basal phosphorylation of Smad2” value (Smad2; resting cardiomyocytes) was “blocked”. The “specificity over members of a panel of related protein kinases” value [6] was “at least 20 fold”.

B1: activin A: Activin A obtained from R&D System (protein, UniProt P08476 311-426, looked up)
Inhibin beta A chain: GLECDGKVNICCKKQFFVSFKDIGWNDWIIAPSGYHANYCEGECPSHIAGTSGSSLSFHSTVINHYRMRGHSPFANLKSCCVPTKLRPMSMLYYDDGQNIIKKDIQNMIVEECGCS
For B1, the “β2AR response/AC activity (procaterol, forskolin)” value [2] was “induces loss”, the “βAR response and AC activity in hBSMC” value ([3]; higher concentration) was “causes loss of βAR response as well as reduced AC activity” and the “β2-AR mRNA levels in cardiomyocytes” value [5] was “down-regulated”.

B2: IL-1β: IL-1β, cytokine applied to rat cardiomyocytes (protein, UniProt Q63264 117-268, looked up)
Interleukin-1 beta: VPIRQLHCRLRDEQQKCLVLSDPCELKALHLNGQNISQQVVFSMSFVQGETSNDKIPVALGLKGLNLYLSCVMKDGTPTLQLESVDPKQYPKKKMEKRFVFNKIEVKTKVEFESAQFPNWYISTSQAEHRPVFLGNSNGRDIVDFTMEPVSS
For B2, the “β2AR response/AC activity (procaterol, forskolin)” value [2] was “induces loss”.
